According to US9029370B2, “Substituted benzamide derivatives” (Hoffmann-La Roche Inc., priority 2011, dated 2015):
Counter-ions that a name gives are not always drawn.

Assays:
mouse TAAR1 = mouse TAAR1 (Mus musculus (Mouse), UniProt Q923Y8); test: Radioligand binding assay on mouse TAAR1; conditions: mouse TAAR1, HEK-293 membranes; first value of the pair (before the slash); read-out: Ki (μM) mouse/rat
Protocol: (§1) For the construction of expression plasmids the coding sequences of human, rat and mouse TAAR 1 were amplified from genomic DNA essentially as described by Lindemann et al.. The Expand High Fidelity PCR System (Roche Diagnostics) was used with 1.5 mM Mg^2+ and purified PCR products were cloned into pCR2.1-TOPO cloning vector (Invitrogen) following the instructions of the manufacturer. PCR products were subcloned into the pIRESneo2 vector (BD Clontech, Palo Alto, Calif.), and expression vectors were sequence verified before introduction in cell lines.
(§2) HEK293 cells (ATCC # CRL-1573) were cultured essentially as described by Lindemann et al. (2005). For the generation of stably transfected cell lines HEK293 cells were transfected with the pIRESneo2 expression plasmids containing the TAAR coding sequences (described above) with Lipofectamine 2000 (Invitrogen) according to the instructions of the manufacturer, and 24 hrs post transfection the culture medium was supplemented with 1 mg/ml G418 (Sigma, Buchs, Switzerland). After a culture period of about 10 d clones were isolated, expanded and tested for responsiveness to trace amines (all compounds purchased from Sigma) with the cAMP Biotrak Enzyme immunoassay (EIA) System (Amersham) following the non-acetylation EIA procedure provided by the manufacturer.
Radioligand Binding Assay on Mouse TAAR1
(§3) Membrane Preparation and Radioligand Binding.
(§4) HEK-293 cells stably expressing mouse TAAR1 were maintained at 37° C. and 5% CO2 in DMEM high glucose medium, containing fetal calf serum (10%, heat inactivated for 30 min at 56° C.), penicillin/streptomycin (1%), and 375 μg/ml geneticin (Gibco). Cells were released from culture flasks using trypsin/EDTA, harvested, washed twice with ice-cold PBS (without Ca^2+ and Mg^2+), pelleted at 1′000 rpm for 5 min at 4° C., frozen and stored at −80° C. […] The homogenate was centrifuged at 48′000×g for 30 min at 4° C. Subsequently, the supernatant was removed and discarded, and the pellet resuspended in 20 ml HEPES-NaOH (20 mM, pH 7.4) containing 0.1 mM EDTA using the Polytron (20 s at 14′000 rpm). This procedure was repeated and the final pellet resuspended in HEPES-NaOH containing 0.1 mM EDTA and homogenized using the Polytron. Typically, aliquots of 2 ml membrane portions were stored at −80° C. With each new membrane batch the dissociation constant (Kd) was determined via a saturation curve. […] Nonspecific binding was defined as the amount of ^3[H]-(S)-4-[(ethyl-phenyl-amino)-methyl]-4,5-dihydro-oxazol-2-ylamine bound in the presence of 10 μM unlabeled ligand. All compounds were tested at a broad range of concentrations (10 pM to 10 μM) in duplicates. […] The 96 deep well plates were incubated for 1 hr at 4° C. Incubations were terminated by rapid filtration through Unifilter-96 plates (Packard Instrument Company) and glass filters GF/C (Perkin Elmer) presoaked for 1 hr in polyethylenimine (0.3%) and washed 3 times with 1 ml of cold binding buffer. After addition of 45 μl of Microscint 40 (PerkinElmer) the Unifilter-96 plate was sealed and after 1 hr the ratioactivity counted using a TopCount Microplate Scintillation Counter (Packard Instrument Company).

rat TAAR1 = rat TAAR1 (Rattus norvegicus (Rat), UniProt Q923Y9); test: Radioligand binding assay on rat TAAR1; conditions: rat TAAR1, HEK-293 membranes; second value of the pair (line below); read-out: Ki (μM) mouse/rat
Protocol: as §1, §2
Radioligand Binding Assay on Rat TAAR1
as §3
as §4, with “rat” for “mouse”

Chain of mouse TAAR1 (Q923Y8 whole entry): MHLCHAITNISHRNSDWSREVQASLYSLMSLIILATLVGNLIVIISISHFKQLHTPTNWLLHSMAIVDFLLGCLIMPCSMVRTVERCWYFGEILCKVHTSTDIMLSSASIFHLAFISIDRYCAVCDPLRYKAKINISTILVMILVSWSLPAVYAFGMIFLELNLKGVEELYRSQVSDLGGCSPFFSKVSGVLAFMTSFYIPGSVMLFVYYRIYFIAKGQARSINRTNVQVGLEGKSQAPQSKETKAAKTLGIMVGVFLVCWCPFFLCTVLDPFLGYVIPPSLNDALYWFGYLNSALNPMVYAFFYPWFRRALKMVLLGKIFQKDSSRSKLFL
Chain of rat TAAR1 (Q923Y9 whole entry): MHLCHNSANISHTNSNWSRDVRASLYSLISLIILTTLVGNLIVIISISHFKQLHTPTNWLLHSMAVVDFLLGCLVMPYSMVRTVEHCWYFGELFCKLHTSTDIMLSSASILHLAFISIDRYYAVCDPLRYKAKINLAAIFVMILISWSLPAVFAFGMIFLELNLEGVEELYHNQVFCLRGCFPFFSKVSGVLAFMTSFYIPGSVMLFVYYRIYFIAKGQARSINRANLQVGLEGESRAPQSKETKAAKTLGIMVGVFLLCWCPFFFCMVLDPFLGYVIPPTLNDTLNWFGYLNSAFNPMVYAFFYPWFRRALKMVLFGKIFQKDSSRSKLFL

Row | SMILES | Ki (mouse TAAR1) | Ki (rat TAAR1)
1 | Cc1cc(C(=O)Nc2ccc([C@H]3CNCCO3)c(Cl)c2)cc(C(N)=O)n1 [Example 118, (S)—N4-(3-Chloro-4-(morpholin-2-yl)phenyl)-6-methylpyridine-2,4-dicarboxamide hydrochloride] | 0.0416 µM | 0.264 µM
2 | O=C(Nc1ccc([C@H]2CNCCO2)c(F)c1)c1cnn(-c2cncc(C(F)(F)F)n2)c1 [Example 127, (S)—N-(3-Fluoro-4-(morpholin-2-yl)phenyl)-1-(6-(trifluoromethyl)pyrazin-2-yl)-1H-pyrazole-4-carboxamide hydrochloride] | 0.007 µM | 0.0016 µM
3 | Cc1cc(C(=O)Nc2ccc([C@H]3CNCCO3)cc2F)cc(C#N)n1 [Example 113, (S)-2-Cyano-N-(2-fluoro-4-(morpholin-2-yl)phenyl)-6-methylisonicotinamide hydrochloride] | 0.0481 µM | 0.0654 µM
4 | N#Cc1ccc(NC(=O)Nc2ccc([C@@H]3CNCCO3)cc2Br)cn1 [Example 65, (R)-1-(2-bromo-4-(morpholin-2-yl)phenyl)-3-(6-cyanopyridin-3-yl)urea] | 0.0037 µM | 0.0218 µM
5 | COc1ccc(C#N)cc1NC(=O)Nc1ccc([C@H]2CNCCO2)cc1Br [Example 58, 1-((S)-2-Bromo-4-morpholin-2-yl-phenyl)-3-(5-cyano-2-methoxy-phenyl)-urea] | 0.0038 µM | 0.0161 µM
6 | O=C(Nc1ccc(Cl)nc1)Nc1ccc(C2CCCNC2)cc1Cl (racemic) [Example 41] | 0.0015 µM | 0.009 µM
7 | COc1ccc(C#N)cc1NC(=O)Nc1ccc([C@H]2CNCCO2)cc1Cl [Example 46, (S)-1-(2-Chloro-4-(morpholin-2-yl)phenyl)-3-(5-cyano-2-methoxyphenyl)urea] | 0.0016 µM | 0.0064 µM
8 | N#Cc1cnc(-n2cc(C(=O)Nc3ccc([C@H]4CNCCO4)c(F)c3)cn2)cn1 [Example 131, (S)-1-(5-Cyanopyrazin-2-yl)-N-(3-fluoro-4-(morpholin-2-yl)phenyl)-1H-pyrazole-4-carboxamide hydrochloride] | 0.0254 µM | 0.0144 µM
9 | N#Cc1ccc(-n2cc(C(=O)Nc3ccc([C@H]4CNCCO4)c(Cl)c3)cn2)c(F)c1 [Example 109, (S)—N-(3-Chloro-4-(morpholin-2-yl)phenyl)-1-(4-cyano-2-fluorophenyl)-1H-pyrazole-4-carboxamide hydrochloride] | 0.0026 µM | 0.0038 µM
10 | N#Cc1ccc(OC(F)F)c(NC(=O)Nc2ccc([C@H]3CNCCO3)cc2Br)c1 [Example 61, 1-((S)-2-Bromo-4-morpholin-2-yl-phenyl)-3-(5-cyano-2-difluoromethoxy-phenyl)-urea] | 0.0018 µM | 0.0025 µM
11 | O=C(Nc1ccc(C2CCCNC2)cc1Cl)c1ccc(Cl)nc1 (racemic) [Example 43, (RS)-6-Chloro-N-(2-chloro-4-piperidin-3-yl-phenyl)-nicotinamide] | 0.0164 µM | 0.367 µM
12 | O=C(Nc1ccc([C@H]2CNCCO2)c(Cl)c1)c1cnn(-c2ccc(OC(F)F)cc2)c1 [Example 96, (S)—N-(3-Chloro-4-(morpholin-2-yl)phenyl)-1-(4-(difluoromethoxy)phenyl)-1H-pyrazole-4-carboxamide hydrochloride] | 0.0013 µM | 0.0006 µM
13 | N#Cc1cccc(NC(=O)Nc2ccc([C@H]3CNCCO3)cc2F)c1 [Example 4, 1-(3-Cyano-phenyl)-3-((S)-2-fluoro-4-morpholin-2-yl-phenyl)-urea] | 0.0017 µM | 0.0028 µM
14 | N#Cc1cc(F)cc(NC(=O)Nc2ccc([C@H]3CNCCO3)cc2F)c1 [Example 26, 1-(3-Cyano-5-fluoro-phenyl)-3-((S)-2-fluoro-4-morpholin-2-yl-phenyl)-urea] | 0.0012 µM | 0.002 µM
15 | O=C(Nc1ccc(C(F)(F)F)nc1)Nc1ccc([C@H]2CNCCO2)cc1Cl [Example 50, (S)-1-(2-Chloro-4-(morpholin-2-yl)phenyl)-3-(6-(trifluoromethyl)pyridin-3-yl)urea] | 0.0018 µM | 0.0014 µM
16 | O=C(Nc1cnc(C(F)(F)F)nc1)Nc1ccc([C@H]2CNCCO2)cc1Br [Example 69, 1-((S)-2-Bromo-4-morpholin-2-yl-phenyl)-3-(2-trifluoromethyl-pyrimidin-5-yl)-urea] | 0.0086 µM | 0.018 µM
17 | N#Cc1ccc(OC(F)F)c(NC(=O)Nc2ccc([C@@H]3CNCCO3)cc2Br)c1 [Example 60, 1-((R)-2-Bromo-4-morpholin-2-yl-phenyl)-3-(5-cyano-2-difluoromethoxy-phenyl)-urea] | 0.0008 µM | 0.001 µM
18 | CCOc1ccc(C(=O)Nc2ccc([C@H]3CNCCO3)c(Cl)c2)cn1 [Example 95, (S)—N-(3-Chloro-4-(morpholin-2-yl)phenyl)-6-ethoxynicotinamide hydrochloride] | 0.0033 µM | 0.035 µM
19 | O=C(Nc1ccc([C@H]2CNCCO2)cc1F)c1cnn(-c2ccc(OC(F)F)cc2)c1 [Example 76, (S)-1-(4-(Difluoromethoxy)phenyl)-N-(2-fluoro-4-(morpholin-2-yl)phenyl)-1H-pyrazole-4-carboxamide] | 0.0016 µM | 0.0018 µM
20 | Cn1nc(-c2ccccc2)cc1C(=O)Nc1ccc([C@H]2CNCCO2)cc1F [Example 17, 2-Methyl-5-phenyl-2H-pyrazole-3-carboxylic acid ((S)-2-fluoro-4-morpholin-2-yl-phenyl)-amide] | 0.0151 µM | 0.0128 µM
21 | O=C(Nc1ccc(Cl)nc1)Nc1ccc(C2CNCCO2)cc1Cl (racemic) [Example 14, (RS)-1-(2-Chloro-4-morpholin-2-yl-phenyl)-3-(6-chloro-pyridin-3-yl)-urea] | – | 0.0039 µM
22 | N#Cc1cccc(NC(=O)Nc2ccc(C3CNCCO3)cc2C#N)c1 (racemic) [Example 33, (RS)-1-(2-Cyano-4-morpholin-2-yl-phenyl)-3-(3-cyano-phenyl)-urea] | – | 1.51 µM
23 | N#Cc1cc(C2CNCCO2)ccc1NC(=O)c1ccn(-c2ccc(F)cc2)n1 (racemic) [Example 28, (RS)—N-(2-Cyano-4-(morpholin-2-yl)phenyl)-1-(4-fluorophenyl)-1H-pyrazole-3-carboxamide] | 0.014 µM | –
24 | O=C(Nc1ccc(Cl)nc1)Nc1ccc([C@H]2CNCCO2)cc1Cl [Example 19, (S)-1-(2-Chloro-4-morpholin-2-yl-phenyl)-3-(6-chloro-pyridin-3-yl)-urea] | – | 0.0034 µM
25 | O=C(Nc1ccc(Cl)nc1)Nc1ccc([C@@H]2CNCCO2)cc1Cl [Example 20, (R)-1-(2-Chloro-4-morpholin-2-yl-phenyl)-3-(6-chloro-pyridin-3-yl)-urea] | – | 0.005 µM
